One data set is described as follows: Kinetic solubility. The data set is classed as physicochemical. Particulars: 25 °C; for solubility at 2 h / solubility kinetic at 2 h: phosphate-buffered saline, pH 7.4, aqueous buffer, kinetic from dmso stock; for solubility at 2 h: read-out: PBS solubility, pH 7.4; for solubility kinetic at 2 h: CSV column, unit inferred. On the procedure:
Briefly, using a 20 mM (10 mM for 5l) stock solution of the compound in 100% DMSO, dilutions were prepared to a theoretical concentration of 400 μM (200 μM for 5l) in duplicates in phosphate-buffered saline pH 7.4 (138 mM NaCl, 2.7 mM KCl, 10 mM K-phosphate) with 2% final DMSO. The experimental compound dilutions in PBS were further allowed to equilibrate at 25 °C on a thermostatic shaker for two hours and then filtered through HTS filter plates using a vacuum manifold. The filtrates of test compounds were diluted 2-fold with acetonitrile with 2% DMSO before measuring.
In parallel, using a 20 mM (10 mM for 5l) stock solution of the compound in 100% DMSO dilutions were prepared to theoretical concentrations of 0 μM (blank), […] (0 μM (blank), 10 μM, 25 50 μM, and 100 μM,μM for 5l) in 50% acetonitrile/PBS with 2% final DMSO to generate calibration curves. Ondansetron was used as a reference compound to control proper assay performance. 200 μL of each sample was transferred to a 96-well plate and measured in the 230-550 nm range with a 5 nm step. […]

A short description of another data set: Caco-2 permeability. It is filed as in vitro ADME. Particulars: human; for Papp A→B at 90 min, 10 μM / Papp B→A at 90 min, 10 μM: pH 7.4, Caco-2, 10 μM; for Papp A→B at 90 min, 10 μM: apical-to-basolateral; for Papp B→A at 90 min, 10 μM: basolateral-to-apical. On the procedure:
Caco-2 cells were cultured in 75 cm2 flasks to 80-90% confluence in a humidified atmosphere at 37 °C and 5% CO2. Cells were detached with Trypsin/EDTA solution and resuspended in the complete medium containing DMEM high glucose (4500 mg/L) with L-glutamine (4 mM) supplemented with 10% […]
heat-inactivated Fetal Bovine Serum, 1% non-essential amino acids, and 730 nM puromycin and seeded at a density 5 × 10^5 cells in 75 cm2 flask. After 5 days, cells were trypsinized and resuspended in the complete medium to a final concentration of 600 × 10^3 cells/mL. 400 μL of the cell suspension was added to each well of the HTS 24-Multiwell Insert System and 25 mL of prewarmed complete medium was added to the feeder tray. Caco-2 cells were incubated in Multiwell Insert System for 6-10 days before the transport experiments. The medium in the filter plate and feeder tray was refreshed every other day. The 24-well insert plate was removed from its feeder plate and placed in a new sterile 24-well transport analysis plate. The inserts were washed with PBS after medium aspiration. Ketoprofen, atenolol, and digoxin were used as reference compounds.
To determine the rate of compounds transport in apical (A)-to-basolateral (B) direction, 300 μL of the test compound dissolved in transport buffer (Hanks’ BSS (9.5 g/L) and NaHCO3 (0.35 g/L) with MgSO4 to final concentration 0.81 mM, CaCl2 to final concentration 1.26 mM, HEPES to final concentration 25 mM, pH adjusted to 7.4) was added into the filter wells; 1000 μL of transport buffer was added to transport analysis plate wells. To determine transport rates in the basolateral (B)-to-apical (A) direction, 1000 μL of the test compound solutions was added into the wells of the transport analysis plate, the wells in the filter plate were filled with 300 μL of buffer. The final amount of reference and test compounds was 10 μM. The plates were incubated for 90 min at 37 °C under continuous shaking at 100 rpm. 75 μL aliquots were taken from the donor and receiver compartments for LC-MS/MS analysis. All samples were mixed with 2 volumes of acetonitrile followed by protein sedimentation by centrifuging at 10000 rpm for 10 min. Supernatants were analyzed using the HPLC system coupled with a tandem mass spectrometer. […]
The GIT model was simulated using the GIT-0 phospholipid mix.
Verapamil, quinidine (high permeability), and ranitidine (low permeability) were used as reference […]
All compounds were tested in triplicate. Prisma HT buffer (pH 7.4) containing 50 μM test compounds (0.5% DMSO) was added to the Donor Plate wells. Acceptor Sink Buffer was added to each well of the Acceptor Plate. Incubation was done at room temperature for 4 hours without stirring. After
A general note: Caco-2 cells form a polarised layer with tight junctions and transporters.

Data set [1] in a line: Human plasma protein binding, equilibrium dialysis. It is filed as in vitro ADME. Particulars: for % of bound compound: human plasma, 1 μM, dialysis 5 h; for recovery at 5 h, 1 µM: human, pH 7.4; for recovery at 5 h, 1 µM / Stability [%]: plasma protein binding assay. On the procedure: Human plasma protein binding
The assay was performed in a multiple-use 96-well dialysis unit (HTD96b dialyzer). Each individual well unit consisted of two chambers separated by a vertically aligned dialysis membrane of predetermined pore size (MWCO 14 kDa). 125 µL of non-diluted plasma spiked with the compound (1 μM, final DMSO and acetonitrile concentration was 0.005% and 1%, respectively) was added to one chamber and the same volume of PBS buffer pH 7.4 to the other chamber. HTD96b dialyzer was incubated with shaking (250 rpm) at 37 °C, 5% CO2, and a saturating humidity (~95%) for 5 h. For samples preparation, an aliquot of the content of each chamber had been mixed with the same volume of the blank opposite matrix. In order to define non-specific loss of the compound during this assay, standard solution was created by mixing an aliquot of spiked plasma with blank buffer without dialysis. Two aliquots of the standard solution were incubated with shaking (250 rpm) at 37 °C, 5% CO2, and a saturating humidity (~95%) for 5 h (recovery samples). The other two aliquots were immediately diluted with acetonitrile and stored at 4 °C until LC-MS/MS analysis (stability samples). All samples were diluted 5-fold with 90% acetonitrile with internal standard with subsequent plasma proteins sedimentation by centrifuging at 6000 rpm for 5 min. Supernatants were analyzed using HPLC system coupled with tandem mass spectrometer. […]
(In general: In equilibrium dialysis free small molecules cross a membrane that holds back macromolecules.)

The mark [2] stands for this setting: kinetic solubility, 2% DMSO, two hours, theoretical concentration 400 μM (200 μM for 5l).

Converted amounts (≈) assume the structure as drawn.

Regarding `O=C(N[C@@H](Cc1ccccc1)C(=O)N[C@H](B(O)O)C1CCCC1)c1cnccn1` [5l, ((R)-Cyclopentyl((S)-3-phenyl-2-(pyrazine-2-carboxamido)propanamido)methyl)boronic Acid], in “Kinetic solubility” (setting [2]), the solubility at 2 h was at least 200 µM. Further, the kinetic solubility at 2 h in the data set “Kinetic solubility” is above 200 µM. The efflux ratio at 90 min, 10 μM in “Caco-2 permeability” (Caco-2, pH 7.4, quotient of Papp(BA) to Papp(AB)) turned out to be 8.4. In “Caco-2 permeability”, this molecule gave a Papp A→B at 90 min, 10 μM of 2 ± 0.2 ×10⁻⁶ cm/s and a Papp B→A at 90 min, 10 μM of 17.1 ± 1 ×10⁻⁶ cm/s. Moreover, in data set [1], the “% of bound compound” value is recorded as 91%; the recovery at 5 h, 1 µM came out at 93%; the “Stability [%]” value is 86%.
Turning to `CC(C)C[C@H](NC(=O)[C@H](Cc1ccccc1)NC(=O)c1cnccn1)B(O)O` [bortezomib, reference compound], in the data set “Kinetic solubility” (setting [2]), the “PBS solubility, pH 7.4” value is listed as above 200 μM and the solubility at 2 h amounted to 399 µM (≈ 153 µg/mL). Moreover, the solubility (kinetic) at 2 h in “Kinetic solubility” is 399 µM (≈ 153 µg/mL). Besides, in the data set “Caco-2 permeability”, the Papp A→B at 90 min, 10 μM came to 2.8 ± 0.1 ×10⁻⁶ cm/s and the Papp B→A at 90 min, 10 μM came out at 20.7 ± 0.1 ×10⁻⁶ cm/s. For the same molecule, in data set [1], the “% of bound compound” value turned out to be 93%; the recovery at 5 h, 1 µM was 100%; the “Stability [%]” value is on record as 92%.

What is called solubility is the dissolved amount per volume that the medium holds. For orientation: solubility (kinetic) means the concentration staying in solution when a stock, usually in DMSO, is diluted into the medium. For orientation: efflux ratio means the permeability from basolateral to apical divided by that in the opposite direction, in the common usage. The term Papp A→B denotes the apparent permeability from the apical to the basolateral side of a cell layer. As a reminder, the Papp B→A is how fast a substance crosses the layer from the basolateral side.

(Values after publication PMC12751025, “α‑Aminoboronic Acid Moieties in Boro Dipeptides Modulate Proteasome Subunit Selectivity and Provide Access to Compounds with Potent Anticancer and Anti-Inflammatory Activity” (Journal of Medicinal Chemistry, 2025).)
